Results: the supplement of paper PMC10307832

Legend:
Experiment in all cases: relative viability (nuclei count vs DMSO), 5 days (fraction); higher = more cells survive
[1] = compound: C1CCC(CC1)N(CCNCCC2=C3C(=C(C=C2)O)NC(=O)CO3)C(=O)CCNCCC4=CC(=C(C=C4)Cl)Cl [AZ505] + CC1(C)CCC(c2ccc(Cl)cc2)=C(CN2CCN(c3ccc(C(=O)NS(=O)(=O)c4ccc(N[C@H](CCN5CCOCC5)CSc5ccccc5)c(S(=O)(=O)C(F)(F)F)c4)cc3)CC2)C1 [Navitoclax] (partner 0.5 µM)
Outline: (§1)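 Relative viability is defined as nuclei in treated wells over nuclei in vehicle wells. Duplicate plates were run and medians reported. Lung cancer cell lines in 1536-well plates were dosed by pin tool one day after seeding, with one drug or with a fixed anchor-drug dose plus five library-drug doses (not always all listed) in √10 steps, and nuclei were counted after 5 days.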

[2] = compound: C1CCC(CC1)N(CCNCCC2=C3C(=C(C=C2)O)NC(=O)CO3)C(=O)CCNCCC4=CC(=C(C=C4)Cl)Cl [AZ505] + CS(=O)(=O)CCNCc1ccc(-c2ccc3ncnc(Nc4ccc(OCc5cccc(F)c5)c(Cl)c4)c3c2)o1 [Lapatinib] (partner 2 µM)
Outline: as §1

[3] = compound: Cn1c(=O)n(-c2ccc(C(C)(C)C#N)cc2)c2c3cc(-c4cnc5ccccc5c4)ccc3ncc21 [Dactolisib] + CCNC(=O)c1noc(-c2cc(C(C)C)c(O)cc2O)c1-c1ccc(CN2CCOCC2)cc1 [Luminespib] (partner 0.01 µM)
Outline: as §1

[4] = compound: Cn1c(=O)n(-c2ccc(C(C)(C)C#N)cc2)c2c3cc(-c4cnc5ccccc5c4)ccc3ncc21 [Dactolisib] + Cc1nc(Nc2ncc(C(=O)Nc3c(C)cccc3Cl)s2)cc(N2CCN(CCO)CC2)n1 [Dasatinib] (partner 0.075 µM)
Outline: as §1

| Cell Line | relative viability ([1]; first compound 0.08 µM) | relative viability ([1]; first compound 0.253 µM) | relative viability ([1]; first compound 0.8 µM) | relative viability ([1]; first compound 2.53 µM) | relative viability ([1]; first compound 8 µM) | relative viability ([2]; first compound 0.08 µM) | relative viability ([2]; first compound 0.253 µM) | relative viability ([2]; first compound 0.8 µM) | relative viability ([2]; first compound 2.53 µM) | relative viability ([2]; first compound 8 µM) | relative viability ([3]; first compound 0.002 µM) | relative viability ([3]; first compound 0.006325 µM) | relative viability ([3]; first compound 0.02 µM) | relative viability ([3]; first compound 0.06325 µM) | relative viability ([3]; first compound 0.2 µM) | relative viability ([4]; first compound 0.002 µM) | relative viability ([4]; first compound 0.006325 µM) | relative viability ([4]; first compound 0.02 µM) | relative viability ([4]; first compound 0.06325 µM) | relative viability ([4]; first compound 0.2 µM) |
| --- | --- | --- | --- | --- | --- | --- | --- | --- | --- | --- | --- | --- | --- | --- | --- | --- | --- | --- | --- | --- |
| PC-3 [JPC-3] | 0.76 | 0.817 | 0.768 | 0.84 | 0.802 | 0.456 | 0.455 | 0.476 | 0.426 | 0.495 | 0.759 | 0.639 | 0.683 | 0.472 | 0.48 | 1.1 | 0.941 | 0.911 | 1.03 | 0.885 |
| NCI-H2228 | 0.889 | 0.978 | 0.692 | 0.716 | 0.612 | 1.09 | 0.957 | 0.939 | 0.885 | 1.11 | 0.15 | 0.143 | 0.112 | 0.176 | 0.128 | 0.629 | 0.441 | 0.339 | 0.162 | 0.141 |
| HOP-62 | 0.946 | 1.1 | 0.972 | 1.03 | 0.992 | 0.878 | 1.22 | 1.08 | 1.03 | 0.942 | 0.983 | 0.812 | 0.888 | 0.543 | 0.561 | 0.637 | 0.578 | 0.625 | 0.349 | 0.277 |
| HARA | 1.14 | 1.12 | 1.12 | 1.07 | 1.08 | 0.636 | 0.501 | 0.651 | 0.802 | 0.681 | 0.829 | 0.462 | 0.62 | 0.314 | 0.121 | 0.273 | 0.25 | 0.213 | 0.292 | 0.127 |
| NCI-H838 | 1.12 | 1.13 | 1.13 | 1.11 | 1.11 | 0.941 | 0.8 | 0.893 | 0.894 | 0.903 | 0.285 | 0.377 | 0.317 | 0.174 | 0.159 | 0.261 | 0.259 | 0.247 | 0.248 | 0.224 |
| NCI-H1755 | 0.949 | 1.06 | 0.967 | 1.01 | 0.971 | 1.02 | 0.99 | 1.09 | 1.09 | 1.03 | 0.298 | 0.399 | 0.418 | 0.417 | 0.359 | 0.392 | 0.401 | 0.379 | 0.412 | 0.278 |
| NCI-H322M | 1.18 | 1.1 | 1.16 | 1.1 | 1.28 | 0.535 | 0.539 | 0.611 | 0.475 | 0.576 | 0.36 | 0.741 | 0.612 | 0.4 | 0.323 | 0.267 | 0.256 | 0.243 | 0.234 | 0.235 |
| NCI-H3122 | 1 | 1.02 | 1.03 | 1.02 | 1 | 1.01 | 1.03 | 1.04 | 0.981 | 1.09 | 0.134 | 0.0901 | 0.104 | 0.0762 | 0.085 | 0.702 | 0.818 | 0.752 | 0.675 | 0.225 |
